Results taken from PubChem BioAssay (NCI).
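Each compound was tested at five concentrations against cells in 96-well plates for 48 hours. TGI: total growth inhibition.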

Experiments:
Test in all cases: NCI anticancer screen, dose series, 48 h
CAKI-1 renal = tested on: CAKI-1 renal
SN12C renal = tested on: SN12C renal
MDA-MB-435 = tested on: MDA-MB-435
SK-MEL-28 melanoma = tested on: SK-MEL-28 melanoma
U251 CNS = tested on: U251 CNS
PC-3 prostate = tested on: PC-3 prostate
EKVX NSCLC = tested on: EKVX NSCLC
SW-620 colon = tested on: SW-620 colon
RXF 393 renal = tested on: RXF 393 renal
OVCAR-3 ovarian = tested on: OVCAR-3 ovarian
SK-MEL-2 melanoma = tested on: SK-MEL-2 melanoma
UO-31 renal = tested on: UO-31 renal
KM12 colon = tested on: KM12 colon
SK-OV-3 ovarian = tested on: SK-OV-3 ovarian
MALME-3M melanoma = tested on: MALME-3M melanoma
SNB-75 CNS = tested on: SNB-75 CNS
OVCAR-8 ovarian = tested on: OVCAR-8 ovarian
LOX IMVI melanoma = tested on: LOX IMVI melanoma
NCI/ADR-RES ovarian = tested on: NCI/ADR-RES ovarian
BT-549 breast = tested on: BT-549 breast
SF-295 CNS = tested on: SF-295 CNS
HL-60(TB) leukemia = tested on: HL-60(TB) leukemia
A498 renal = tested on: A498 renal
SNB-19 CNS = tested on: SNB-19 CNS
MOLT-4 leukemia = tested on: MOLT-4 leukemia
HCT-15 colon = tested on: HCT-15 colon
K-562 leukemia = tested on: K-562 leukemia
HOP-92 NSCLC = tested on: HOP-92 NSCLC
HCT-116 colon = tested on: HCT-116 colon
T-47D breast = tested on: T-47D breast
SF-268 CNS = tested on: SF-268 CNS
HOP-62 NSCLC = tested on: HOP-62 NSCLC
OVCAR-5 ovarian = tested on: OVCAR-5 ovarian
SF-539 CNS = tested on: SF-539 CNS
UACC-62 melanoma = tested on: UACC-62 melanoma
IGROV1 ovarian = tested on: IGROV1 ovarian
NCI-H226 lung = tested on: NCI-H226 lung
MCF7 breast = tested on: MCF7 breast
ACHN renal = tested on: ACHN renal
MDA-MB-231 breast = tested on: MDA-MB-231 breast
SK-MEL-5 melanoma = tested on: SK-MEL-5 melanoma
TK-10 renal = tested on: TK-10 renal
RPMI-8226 leukemia = tested on: RPMI-8226 leukemia
786-0 renal = tested on: 786-0 renal
HS 578T breast = tested on: HS 578T breast
DU-145 prostate = tested on: DU-145 prostate
UACC-257 melanoma = tested on: UACC-257 melanoma

Measured: TGI

O=c1cc(-c2ccccc2)[nH]c2ccc(N3CCCC3)cc12
< 0.0347 µM: HL-60(TB) leukemia
2.16 µM: SK-MEL-5 melanoma
0.0703 µM: SF-539 CNS
> 52.4 µM: 786-0 renal
> 46.9 µM: U251 CNS
0.0761 µM: NCI-H226 lung
> 34.8 µM: HCT-116 colon
26.1 µM: OVCAR-3 ovarian
0.198 µM: KM12 colon
85.2 µM: UACC-62 melanoma
> 57.9 µM: OVCAR-8 ovarian
< 0.0114 µM: MDA-MB-435
0.0201 µM: SF-295 CNS
> 74.2 µM: HOP-62 NSCLC
> 100 µM: all other assays above
